This is an account of results in patent US20240156920A1, “COMPOSITIONS COMPRISING HYALURONIDASE AND/OR COLLAGENASE AND/OR 4-METHYLUMBELLIFERONE (4-MU) AND METHODS OF TREATMENT USING SAME” (STANDARD OF CARE CORPORATION, priority 2019, published 2024).

Data set [1] has as its system patient with peri-orbital puffiness due to edema. Kind of data set: Treatment of peri-orbital puffiness due to peri-orbital edema using 4-MU (Example 5). It counts as in vivo, human. Here is the method: A patient with peri-orbital puffiness due to edema (edema not due to a hyaluronic acid filler) of the peri-orbital soft tissues or edema of the eyelid fat pads was treated with a composition comprising 25 mg/mL 4-methylumbelliferone (4-MU). Briefly, four injections were administered in the peri-orbital soft tissues and edematous orbital fat pads. The injections were performed using a 0.5 ml syringe having a 32-gauge needle inserted parallel to the globe, angling away from the globe, to avoid injury to the globe. An improvement in the extent of peri-orbital puffiness due to peri-orbital edema was observed within the first 15-60 minutes after the injections. […] Although there was recurrence of some of the edema, there was an improvement up to 3 months.

For data set [2] the test system is unchanged. Kind of data set: Treatment of peri-orbital puffiness due to peri-orbital edema using a hyaluronidase (Example 2). It counts as in vivo, human. Particulars: four injections, 10 units in each fat pad. Here is the method:
A patient with peri-orbital puffiness due to edema (edema not due to a hyaluronic acid filler) of the peri-orbital soft tissues or edema of the eyelid fat pads was treated with a composition comprising a hyaluronidase (e.g., Hylenex). Briefly, four injections were administered in the peri-orbital soft tissues and edematous orbital fat pads using a dosage of 10 units injected in each fat pad (in the case of edema of the fat pads). The injections were performed using a 0.5 ml syringe having a 32-gauge needle inserted parallel to the globe, angling away from the globe, to avoid injury to the globe.
An improvement in the extent of peri-orbital puffiness due to peri-orbital edema was observed within the first 15-60 minutes after the injections. […] Although there was recurrence of some of the edema, there was an improvement up to 3 months.

Another data set relates to Demyelinated neurons. Kind of data set: Treatment of demyelinated neurons in culture, microscopy (Example 9). It counts as cell-based. Particulars: 10 U/mL; after 14 days; 24-well plate. Here is the method: Demyelinated neurons were grown to confluence in culture and then transferred to a 24-well cell culture plate (Sigma) in a volume of 2 mL. 10 U/mL of Hylenex was added to each well.

Data set [3] relates to patients with peri-orbital puffiness due to edema of the eyelid fat pads. Kind of data set: Treatment of peri-orbital puffiness due to peri-orbital edema using HYLENEX, PEFAS and Subjective Patient Score (Example 12). It counts as in vivo, human. The source says: The Peri-orbital and Eyelid Fullness Assessment Scale (PEFAS or Sweis-Scale) defines the etiology of the upper and/or lower eyelid fullness to determine the best and safest course of treatment. It determines whether the fullness is secondary to pseudoherniation of the upper and/or lower eyelid fat pads, secondary to edema of the eyelid soft tissues, secondary to edema of the fat pads, or secondary to a combination of pseudoherniation of the fat pads with edema of the fat pads, and/or edema of the peri-orbital soft tissues. The PEFAS score is represented as the findings in the right upper eyelid/the findings in the lower eyelid and the findings in the left upper eyelid/the findings in the lower eyelid.
Four patients (Patients A-D) with peri-orbital puffiness due to edema (as identified in Example 1) of the eyelid fat pads were scored as a Grade 1E, 2E, 3E, or 3+E on the Peri-orbital Fullness Assessment Scale. A score was given to the upper and lower eyelids in the patient's left and right eye. Patient A's eyes were scored on the PEFAS scale as a L 0/3E (left eye; upper eyelid over lower eyelid) and a R 0/3E (right eye; upper eyelid over lower eyelid). Patient B was scored as a L 2E/2E and a R 2E/2E. Patient C was scored as a L 1/3E and a R 0/3E and Patient D was scored as a L 2E/3+E and a R 2E/3+E.
The patients were subsequently treated with HYLENEX. […] The injections were performed using a 0.5 ml syringe having a 31-gauge needle inserted parallel to the globe, angling away from the globe, to avoid injury to the globe. Specifically, three injections were made into the medial eyelid fat pad, two into the central eyelid fat pad, and three into the lateral eyelid fat pad at a depth of about 6 mm, 8 mm, and 6 mm, respectively. Additionally Patients B and C received 3 to 5 injections in the peri-orbital soft tissues (e.g., the malar region) at a depth of between about 5 to about 10 mm.
After treatment, Patient C was followed for 1 month, Patient D was followed for 2 months, and Patients A and B were followed for 3 months.
After treatment, the patient's eyes were scored on the PEFAS scale. Patient A's eyes were scored on the PEFAS scale as a L 0/0 (left eye; upper eyelid over lower eyelid) and a R 0/0E (right eye; upper eyelid over lower eyelid). Patient B was scored as a L 2E/1E and a R 2E/1. Patient C was scored as a L 1E/1E and a R 0/1 and Patient D was scored as a L 2E/0E and a R 2E/0.
Each patient was given an initial Subjective Patient Score of 10. The Subjective Patient Score is based on a scale of 1 to 10 with 10 being the subject's observed starting amount of peri-orbital puffiness and 0 being no puffiness. Each of the patients scored their puffiness between as a 3 or 4 at 2 weeks, 3 months, and 6 months after their initial treatment.

The subject of data set [4] is patients with lower eyelid puffiness. Kind of data set: Treatment of lower eyelid puffiness with hyaluronidase and collagenase, visual assessment (Example 7). It counts as in vivo, human. As to conditions: one patient per composition; 100 U to each of five sites in the lower eyelid fat pads; assessed 2 weeks to 1 year after administration. Here is the method:
Patient A (a person), Patent B (a person), and Patent C (a person) presented with lower eyelid puffiness.
Briefly, Patient A was administered a composition comprising Hylenex by injections of 100 U to each of five sites in the lower eyelid fat pads, Patient B was administered a composition comprising a collagenase by injections of 100 U to each of five sites in the lower eyelid fat pads, and Patient C was administered a composition comprising Hylenex and a collagenase by injections of 100 U to each of five sites in the lower eyelid fat pads. The injections were performed using a 0.5 ml syringe having a 32-gauge needle.
Each patient's lower eyelid puffiness was visually assessed 2 weeks, 1 month, 2 months, 4 months, 6 months, and 1 year after administration of the compositions.

For data set [5], the system named is patients with scleroderma on their arms. Kind of data set: Treatment of fibrosis (scleroderma on arms), severity grade (Example 8). It counts as in vivo, human. Particulars: five patients; average prior to treatment moderate; five injection points in a 10×10 cm area; followed one day to six months. Here is the method: Five patients with scleroderma on their arms were treated with Hylenex and the change in severity of their fibrosis was measured after treatment. Briefly, the severity of scleroderma on a target area of on each patient was first graded using as either severe, moderate, mild, or none. Overall scores for patients' arms prior to treatment averaged as moderate.
Next, Hylenex was injected at five different points into a 10×10 cm area of scleroderma on the patient's arm. The injections were performed using a 0.5 ml syringe having a 32-gauge needle. All patients were followed post injection, at one day, one week, one, three, and six months.

In data set [6] the test system is patients with inflammation due to stasis dermatitis. Kind of data set: Treatment of inflammation due to stasis dermatitis, severity grade (Example 6). It counts as in vivo, human. On the set-up: key: 4 (severe); 3 (moderate); 2 (mild); 1 (quiescent); 0 (normal). As to conditions: one week after treatment, 500 units at five points on the ankle. Here is the method: Patients with inflammation due to stasis dermatitis (Patient A, B, and C) on their lower legs were treated with Hylenex and the change in severity of their inflammation was measured after treatment.
Briefly, the severity of inflammation on a target area of each patient's ankle was first graded on the following scale: 4 (severe), 3 (moderate), 2 (mild), 1 (quiescent), or 0 (normal). Patient A scored a 4 prior to treatment, Patient B scored a 3 prior to treatment, and Patient C scored a 3 prior to treatment.
Next, 500 units of hylenex was injected at five different points into an area on each patient's ankle. The injections were performed using a 0.5 ml syringe having a 32-gauge needle. All patients were followed post injection, at one day and one week. Patient A's inflammation was classified as a 2 one week after treatment, Patient B's inflammation was classified as a 2 one week after treatment, and Patient C's inflammation was classified as a 2 one week after treatment.

Another data set has as its system patients with jowls. Kind of data set: Treatment of jowls, severity grade (Example 10). In kind it is in vivo, human. Particulars: Patients A, B and C, injected at seven points. Here is the method:
Patients with jowls (Patient A, B, and C) were treated with Hylenex and the change in severity of their jowls was measured after treatment. Briefly, the severity of jowls in Patients A-C was assessed on a scale of severe, moderate or mild. Patient A and B presented with severe jowls while Patient C presented with mild jowls.
Next, Hylenex was injected at seven different points into an area of skin on each patients with jowls. The injections were performed using a 0.5 ml syringe having a 32-gauge needle. All patients were followed post injection, at one day, one week, one, three, and six months.

In the case of `Cc1cc(=O)oc2cc(O)ccc12` [4-methylumbelliferone], in data set [1] (one patient followed for 6 months, 25 mg/mL, four injections), the adverse effects entry was “without any adverse effects”. Further, in data set [1] (one patient followed for 6 months, 25 mg/mL, four injections, recurrence of some of the edema), the “duration of overall reduction in peri-orbital puffiness due to peri-orbital edema compared to pre-treatment” value is “up to 3 months”. Besides, the “time after the injections within which an improvement in the extent of peri-orbital puffiness due to peri-orbital edema was observed” value in data set [1] (one patient, four injections of a composition comprising 25 mg/mL) lay in the range of 15 to 60 min.
In the case of “Hylenex: recombinant preparation of human hyaluronidase; soluble fragment of human hyaluronidase (PH20), 447 amino acids, SEQ ID NO: 1”, the adverse effects result in data set [2] (one patient followed for 6 months) was “without any adverse effects”; in data set [3] (Patients A-D followed for up to 6 months, 30U per fat pad), “without any adverse effects”. In addition, the “duration of overall reduction in peri-orbital puffiness due to peri-orbital edema compared to pre-treatment” value in data set [2] (one patient followed for 6 months, recurrence of some of the edema) is “up to 3 months”. In data set [2] (one patient), the “time after the injections within which an improvement in the extent of peri-orbital puffiness due to peri-orbital edema was observed” value was 15 to 60 min. Further, the “myelination of neurons by microscopy” value in the data set on Demyelinated neurons is on record as “remyelinated neurons”. For the same molecule, the “PEFAS score after treatment (upper eyelid over lower eyelid)” value was 0/0 in data set [3] (Patient A, left eye, L 0/3E before treatment) and 0/1 in data set [3] (Patient C, right eye, R 0/3E before treatment). In data set [3] (Patients A-D, 30U per fat pad), the “time over which a reduction in peri-orbital puffiness is still exhibited” value is given as “up to 6 months”. Besides, the “time after the injections within which an improvement in the extent of peri-orbital puffiness was exhibited” value in data set [3] (each of Patients A-D, 30U per peri-orbital fat pad exhibiting edema) was in the range of 15 to 60 min. In addition, the “peri-orbital (eye) puffiness compared to pre-treatment” value in data set [3] (each of Patients A-D, followed 1 month (C), 2 months (D), 3 months (A and B), 30U per fat pad) is recorded as “marked reduction”. The “lower eyelid puffiness, visual assessment” value in data set [4] is given as “reduction in lower eyelid puffiness”. Further, the “overall severity score of scleroderma post-treatment (severe, moderate, mild, none)” value in data set [5] is given as “mild”. Further, the “severity of inflammation (scale 0-4) after treatment” value in data set [6] (Patient A, 4 prior to treatment) stood at 2; in data set [6] (Patient B, 3 prior to treatment), 2; in data set [6] (Patient C, 3 prior to treatment), 2. Besides, the “duration of effect on jowls” value in the data set with patients with jowls is reported as “more than six months”. For the same molecule, the “severity of jowls (severe, moderate or mild) after treatment” value in the data set on patients with jowls (one day after treatment, A and B severe, C mild before) was “mild jowls”.
Regarding collagenase, the “lower eyelid puffiness, visual assessment” value in data set [4] was “did not exhibit any reduction in lower eyelid puffiness”.
